Measured values taken from US20240269050A1, “ELECT[…] FOR DELIVERING A COMPOSITION COMPRISING AT LEAST ONE HYDROXY ACID COMPOUND” (L'OREAL, priority 2021, published 2024).

Details: composition applied with electroporation (Fusion Meso Xpert, ftrain 0.4 Hz, negative polarity) compared with topical application of an identical composition; human skin sample; FIG. 5
Description: To test the effect of the device, a sample of human skin is peripherally attached to a support, with the counterelectrode of the electroporation device placed between the inner face of the skin and the support. The electrode of the electroporation device is placed in contact with the outer face of the skin sample. The case of the electroporation device is immobilized by a support. The support is placed on an orbital shaker, so that the electrode moves over the surface of the skin.
The frequency (ftrain) with which the pulse trains follow each other is 0.4 Hz, the duration Ton ranges from 0.5 to 2 seconds, and the chosen polarity is negative, i.e. the electrode is at a negative potential with respect to the counterelectrode. The apparatus is used in the highest energy mode. […] The pulses of frequency fpulse are, for example, of maximum amplitude deltaV, within the pulse train, this amplitude deltaV being less than or equal to 30% of the voltage Vmean, as an absolute value.
The cosmetic compositions are applied before the apparatus is put in place.
Firstly, compositions 1 to 3 are applied topically, and secondly, the application of compositions 1 to 3 is combined with electroporation.
The skin is removed from the experimental system and then analysed to determine the amount of salicylic acid that has penetrated.

amount of salicylic acid that has penetrated: much higher
SMILES: O=C(O)c1ccccc1O [salicylic acid]
